Measured values as given in US7459478B2, “Substituted dihydropyrano indole-3,4-dione derivatives as inhibitors of plasminogen activator inhibitor-1 (PAI-1)” (Wyeth, priority 2002, dated 2008).
Read-outs that look alike come from different tables or passages of the source.

What was measured:
[1] = biological target: T1, recombinant human plasminogen activator inhibitor-1 (Homo sapiens, UniProt P05121); assay: Primary screen for the PAI-1 inhibition (chromogenic residual tPA activity); assay type: biochemical
T1 construct: purchased Molecular Innovations, Royal Oak, Mich
Experimental: Primary Screen for the PAI-1 Inhibition
Test compounds were dissolved in DMSO at a final concentration of 10 mM, then diluted 100× in physiologic buffer. The inhibitory assay was initiated by the addition of the test compound (1-100 μM final concentration, maximum DMSO concentration of 0.2%) in a pH 6.6 buffer containing 140 nM recombinant human plasminogen activator inhibitor-1 (Molecular Innovations, Royal Oak, Mich.). Following a 1 hour incubation at room temperature, 70 nM of recombinant human tissue plasminogen activator (tPA) was added, and the combination of the test compound, PAI-1 and tPA was incubated for an additional 30 minutes. Following the second incubation, Spectrozyme-tPA (American Diagnostica, Greenwich, Conn.), a chromogenic substrate for tPA, was added and absorbance read at 405 nm at 0 and 60 minutes. Relative PAI-1 inhibition was equal to the residual tPA activity in the presence of the test compound and PAI-1. Control treatments included the complete inhibition of tPA by PAI-1 at the molar ratio employed (2:1), and the absence of any effect of the test compound on tPA alone.

human PAI-1 = human PAI-1 (Homo sapiens, UniProt P05121); assay: Assay for determining IC50 of inhibition of PAI-1 (tPA-coated plate, antibody detection of active PAI-1); details: human PAI-1 50 ng/ml, pH 7.5, binding to tPA-coated plate
Experimental: Assay for Determining IC50 of Inhibition of PAI-1
This assay is based upon the non-SDS dissociable interaction between tPA and active PAI-1. Assay plates were initially coated with human tPA (10 μg/ml). Test compounds were dissolved in DMSO at 10 mM, then diluted with physiologic buffer (pH 7.5) to a final concentration of 1-50 μM. Test compounds were incubated with human PAI-1 (50 ng/ml) for 15 minutes at room temperature. The tPA-coated plate was washed with a solution of 0.05% Tween 20 and 0.1% BSA, then the plate was blocked with a solution of 3% BSA. An aliquot of the test compound/PAI-1 solution was then added to the tPA-coated plate, incubated at room temperature for 1 hour, and washed. Active PAI-1 bound to the plate was assessed by adding an aliquot of a 1:1000 dilution of the 33B8 monoclonal antibody against human PAI-1, and incubating the plate at room temperature for 1 hour (Molecular Innovations, Royal Oak, Mich.). The plate was again washed, and a solution of goat anti-mouse IgG-alkaline phosphatase conjugate is added at a 1:50,000 dilution in goat serum. The plate was incubated 30 minutes at room temperature, washed, and a solution of alkaline phosphatase substrate is added. The plate was incubated 45 minutes at room temperature, and color development is determined at OD405 nm. The quantition of active PAI-1 bound to tPA at varying concentrations of the test compound was used to determine the IC50. Results were analyzed using a logarithmic best-fit equation. The assay sensitivity was 5 ng/ml of human PAI-1 as determined from a standard curve ranging from 0-100 ng/ml.

[2] = 25 uM test compound, 140 nM PAI-1, 70 nM tPA, pH 6.6, read-out: % inhibition at 25 uM
[3] = pH 6.6, read-out: % inhibition at 25 uM

Sequence of human PAI-1 (P05121 24-402): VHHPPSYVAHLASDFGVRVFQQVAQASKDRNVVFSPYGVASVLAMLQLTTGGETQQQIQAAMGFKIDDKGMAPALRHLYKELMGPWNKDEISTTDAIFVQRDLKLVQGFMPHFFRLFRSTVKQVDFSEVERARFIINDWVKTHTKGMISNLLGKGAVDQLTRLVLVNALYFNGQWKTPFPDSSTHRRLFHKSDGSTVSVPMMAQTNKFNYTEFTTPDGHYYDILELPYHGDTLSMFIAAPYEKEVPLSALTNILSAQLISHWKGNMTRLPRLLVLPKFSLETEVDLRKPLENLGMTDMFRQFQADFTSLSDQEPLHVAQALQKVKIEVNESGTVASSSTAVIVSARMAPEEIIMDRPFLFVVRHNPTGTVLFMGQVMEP
T1 sequence (P05121 24-402): as above

IC50 (human PAI-1) [µM]	SMILES	inhibition at 25 µM [1, 2] [%]	melting point	inhibition at 25 µM [1, 3] [%]
	CC(C)(C)c1ccc(Cn2c3c(c4cc(OCc5ccccc5)ccc42)C(=O)C(=O)OC3)cc1 [Example 7, 6-(Benzyloxy)-9-(4-tert-butylbenzyl)-1,9-dihydropyrano[3,4-b]indole-3,4-dione]	6	233 to 234 °C	
	O=C([O-])C(=O)c1c(CO)n(Cc2ccccc2)c2ccc(-c3ccc(-c4ccccc4)cc3)cc12.[K+] [Example 13, [1-Benzyl-5-(1,1′-biphenyl-4-yl)-2-(hydroxymethyl)-1H-indol-3-yl](oxo)acetic acid, potassium salt]		266 to 268 °C	36
	Cc1cccc(-c2ccc3c(c2)c2c(n3Cc3ccccc3)COC(=O)C2=O)c1 [Example 11, 9-Benzyl-6-(3-methylphenyl)-1,9-dihydropyrano[3,4-b]indole-3,4-dione]		225 to 226 °C	30
	Cc1ccc(Cn2c3c(c4cc(-c5cccc(C)c5)ccc42)C(=O)C(=O)OC3)cc1 [Example 3, 9-(4-Methylbenzyl)-6-(3-methylphenyl)-1,9-dihydropyrano[3,4-b]indole-3,4-dione]		216 to 217 °C	22
34.8	O=C1OCc2[nH]c3ccc(OCc4ccccc4)cc3c2C1=O [Example 6, 6-(Benzyloxy)-1,9-dihydropyrano[3,4-b]indole-3,4-dione]		> 291 °C (dec.)	
29.5	Cc1cccc(-c2ccc3c(c2)c2c(n3Cc3ccc(C(C)(C)C)cc3)COC(=O)C2=O)c1 [Example 4, 9-(4-tert-butylbenzyl)-6-(3-methylphenyl)-1,9-dihydropyrano[3,4-b]indole-3,4-dione]		196 to 197 °C	
	O=C1OCc2c(c3cc(-c4ccc(Cl)cc4)ccc3n2Cc2ccccc2)C1=O [Example 9, 9-Benzyl-6-(4-chlorophenyl)-1,9-dihydropyrano[3,4-b]indole-3,4-dione]		263 to 264 °C	40
26.6	Cc1ccc(Cn2c3c(c4cc(OCc5ccccc5)ccc42)C(=O)C(=O)OC3)cc1 [Example 5, 6-(Benzyloxy)-9-(4-methylbenzyl)-1,9-dihydropyrano[3,4-b]indole-3,4-dione]		206 to 207 °C	
2.3	Cc1ccc(Cn2c3c(c4cc(-c5ccc(OC(F)(F)F)cc5)ccc42)C(=O)C(=O)OC3)cc1 [Example 1, 9-(4-Methylbenzyl)-6-[4-(trifluoromethoxy)phenyl]-1,9-dihydropyrano[3,4-b]indole-3,4-dione]		243 to 244 °C	
	O=C1OCc2c(c3cc(-c4ccc(-c5ccccc5)cc4)ccc3n2Cc2ccccc2)C1=O [Example 12, 9-Benzyl-6-(1,1′-biphenyl-4-yl)-1,9-dihydropyrano[3,4-b]indole-3,4-dione]	40	254 to 255 °C	
4.83	CC(C)(C)c1ccc(Cn2c3c(c4cc(O)ccc42)C(=O)C(=O)OC3)cc1 [Example 8, 9-(4-tert-Butylbenzyl)-6-hydroxy-1,9-dihydropyrano[3,4-b]indole-3,4-dione]		> 105 °C (dec.)	
	O=C1OCc2c(c3cc(-c4ccc(OC(F)(F)F)cc4)ccc3n2Cc2ccccc2)C1=O [Example 2, 9-Benzyl-6-[4-(trifluoromethoxy)phenyl]-1,9-dihydropyrano[3,4-b]indole-3,4-dione]	34	239 to 240 °C	
	O=C([O-])C(=O)c1c(CO)n(Cc2ccccc2)c2ccc(-c3ccc(Cl)cc3)cc12.[K+] [Example 10, [1-Benzyl-5-(4-chlorophenyl)-2-(hydroxymethyl)-1H-indol-3-yl](oxo)acetic acid, potassium salt]		225 to 226 °C	59
